Results taken from patent publication US20250320205A1, “STAT6 DEGRADERS” (Gilead Sciences, Inc., priority 2024, published 2025).

These molecules were tested on Eotaxin-3 (CCL26) release (assay: Human Whole Blood Eotaxin-3 Assay (IL-4 stimulated)). Conditions: Homo sapiens; geometric mean across assay runs and compound batches; EC50 provided for test compounds with >80% Emax.
Assay type: cell-based
Description: This was a human whole blood assay using recombinant human Interleukin 4 to stimulate the blood and measuring the ability of the test compounds to inhibit eotaxin-3 release. The biological activities of the test compounds have been tested in human whole blood stimulated with IL-4 measuring Eotaxin-3 release. The test compounds were added to 384 well clear flat-bottom plate in a 4-fold serial dilution in triplicates using a liquid handler. Human whole blood stabilized in lithium-heparin tubes was added in a volume of 65 μL per well, resulting in a final DMSO concentration of 0.5%. The plate is incubated for 2 h at 37° C. under 5% CO2/95% air. Subsequently, 5 μL of recombinant human IL-4 (R&D Systems, cat #204-ILB) was added to the wells to a final concentration of 400 pM. The plate was incubated for 48 h at 37° C. under 5% CO2/95% air. The plate was spun down for 10 minutes at 500×g and 20 μL supernatant was harvested and transferred to a 384 well v-bottom plate using a liquid handler and stored at −20° C. until further analysis. 10 μL supernatant was used to measure the level of Eotaxin-3 (CCL26) using Human Eotaxin-3 MSD kit from Mesocsale (Cat #K251UEK-4). The assay was performed according to the manufacture instructions.

SMILES	EC50 [nM]
CNc1cc(=O)n(-c2ccnc3c2cc(CN2CC=C(c4c(F)cc(C(=O)N5CCC(CN6CCN(c7ccc(N[C@H]8CCC(=O)NC8=O)cc7F)CC6)CC5)cc4F)CC2)n3C)cc1F (single isomer, unassigned) [Example 2g66]	173
CNc1cc(=O)n(-c2ccnc3c2cc(CN2CC=C(c4c(F)cc(C(=O)N5CCC(CN6CCN(c7ccc(N[C@@H]8CCC(=O)NC8=O)cc7F)CC6)CC5)cc4F)CC2)n3C)cc1F (single isomer, unassigned) [Example 2g67]	99.4
CNc1ccn(-c2ccnc3c2cc([C@H](C)N2CC=C(c4c(F)cc(C(=O)N5CCC(CN6CCN(c7ccc(N[C@@H]8CCC(=O)NC8=O)cc7F)CC6)CC5)cc4F)CC2)n3C)c(=O)c1 (single isomer, unassigned) [Example 2g105]	8.7
CNc1ccn(-c2ccnc3c2cc([C@H](C)N2CC=C(c4c(C)cc(C(=O)N5CCC(CN6CCN(c7ncc(N[C@@H]8CCC(=O)NC8=O)cc7F)C[C@H]6C)CC5)cc4F)CC2)n3C)c(=O)c1 (single isomer, unassigned) [Example 2g115]	9.5
CNc1cc(=O)n(-c2ccnc3c2cc([C@@H](C)N2CC=C(c4c(F)cc(C(=O)N5CCn6nc(CN7CCC(c8ccc(NC9CCC(=O)NC9=O)cc8F)CC7)cc6C5)cc4F)CC2)n3C)cc1F (stereo in doubt) [Example 2g2, 3-((4-(1-((5-(3,5-difluoro-4-(1-((R)-1-(4-(5-fluoro-4-(methylamino)-2-oxopyridin-1(2H)-yl)-1-methyl-1H-pyrrolo[2,3-b]pyridin-2-yl)-ethyl)-1,2,3,6-tetrahydro-pyridin-4-yl)benzoyl)-4,5,6,7-tetrahydropyrazolo[1,5-a]pyrazin-2-yl)methyl)piperi-din-4-yl)-3-fluorophenyl)-amino)piperidine-2,6-dione]	119
CNc1nc(=O)n(-c2ccnc3c2cc(CN2CCC(c4c(F)cc(C(=O)N5CCn6nc(CN7CCC(c8ccc(NC9CCC(=O)NC9=O)c(OC)c8)CC7)cc6C5)cc4F)CC2)n3C)cc1F (stereo not drawn) [Example 2c50, 3-((4-(1-((5-(3,5-difluoro-4-(1-((4-(5-fluoro-4-(methyl-amino)-2-oxopyrimidin-1(2H)-yl)-1-methyl-1H-pyr-rolo[2,3-b]pyridin-2-yl)meth-yl)piperidin-4-yl)benzoyl)-4,5,6,7-tetrahydropyrazolo-[1,5-a]pyrazin-2-yl)methyl)-piperidin-4-yl)-2-methoxy-phenyl)amino)piperidine-2,6-dione]	18.7
C[C@@H](c1cc2c(-n3cc(F)c4c(c3=O)CCN4)ccnc2n1C)N1CC=C(c2c(F)cc(C(=O)N3CCn4nc(CN5CCC(c6ccc(NC7CCC(=O)NC7=O)cc6F)CC5)cc4C3)cc2F)CC1 (stereo partly drawn) [Example 2g3, 3-((4-(1-((5-(3,5-difluoro-4-(1-((S)-1-(4-(7-fluoro-4-oxo-1,2,3,4-tetrahydro-5H-pyrrolo [3,2-c]pyridin-5-yl)-1-methyl-1H-pyrrolo[2,3-b]pyridin-2-yl)ethyl)-1,2,3,6-tetrahydro-pyridin-4-yl)benzoyl)-4,5,6,7-tetrahydropyrazolo[1,5-a]pyrazin-2-yl)methyl)piperi-din-4-yl)-3-fluorophenyl)-amino)piperidine-2,6-dione]	8.8
CNc1nc(=O)n(-c2ccnc3c2cc([C@H](C)N2CC=C(c4c(C)cc(C(=O)N5CCn6nc(CN7CCC(c8ccc(NC9CCC(=O)NC9=O)c(OC)c8)CC7)cc6C5)cc4F)CC2)n3C)cc1F (stereo partly drawn) [Example 2g8, 3-((4-(1-((5-(3-fluoro-4-(1-((S)-1-(4-(5-fluoro-4-(meth-ylamino)-2-oxopyrimidin-1(2H)-yl)-1-methyl-1H-pyrrolo[2,3-b]pyridin-2-yl)-ethyl)-1,2,3,6-tetrahydro-pyridin-4-yl)-5-methylbenzo-yl)-4,5,6,7-tetrahydropyrazolo [1,5-a]pyrazin-2-yl)methyl)-piperidin-4-yl)-2-methoxy-phenyl)amino)-piperidine-2,6-dione]	1.7
CNc1ccn(-c2ccnc3c2cc([C@H](C)N2CC=C(c4c(C)cc(C(=O)N5CCn6c(nnc6C6CCN(Cc7ccc(NC8CCC(=O)NC8=O)c(OC)c7)CC6)C5)cc4F)CC2)n3C)c(=O)c1 (stereo partly drawn) [Example 2g9, 3-((4-((4-(7-(3-fluoro-5-methyl-4-(1-((S)-1-(1-methyl-4-(4-(methylamino)-2-oxo-pyridin-1(2H)-yl)-1H-pyrrolo [2,3-b]pyridin-2-yl)ethyl)-1,2,3,6-tetrahydropyridin-4-yl)benzoyl)-5,6,7,8-tetra-hydro[1,2,4]triazolo[4,3-a]pyrazin-3-yl)piperidin-1-yl)-methyl)-2-methoxyphenyl)-amino)-piperidine-2,6-dione]	803

The molecules below were run against T1, STAT6 (Homo sapiens, UniProt P42226) (assay: STAT6 Degrader Assay (HiBiT based, HeLa LgBiT clone 4.14 cells)). Conditions: HeLa; maximal STAT6 degradation.
T1 construct: These cells express endogenous STAT6; host or cells: HeLa LgBiT clone 4.14 (CRISPR knock-in of HiBiT into the endogenous STAT6 gene)
T1 sequence (P42226 1-847): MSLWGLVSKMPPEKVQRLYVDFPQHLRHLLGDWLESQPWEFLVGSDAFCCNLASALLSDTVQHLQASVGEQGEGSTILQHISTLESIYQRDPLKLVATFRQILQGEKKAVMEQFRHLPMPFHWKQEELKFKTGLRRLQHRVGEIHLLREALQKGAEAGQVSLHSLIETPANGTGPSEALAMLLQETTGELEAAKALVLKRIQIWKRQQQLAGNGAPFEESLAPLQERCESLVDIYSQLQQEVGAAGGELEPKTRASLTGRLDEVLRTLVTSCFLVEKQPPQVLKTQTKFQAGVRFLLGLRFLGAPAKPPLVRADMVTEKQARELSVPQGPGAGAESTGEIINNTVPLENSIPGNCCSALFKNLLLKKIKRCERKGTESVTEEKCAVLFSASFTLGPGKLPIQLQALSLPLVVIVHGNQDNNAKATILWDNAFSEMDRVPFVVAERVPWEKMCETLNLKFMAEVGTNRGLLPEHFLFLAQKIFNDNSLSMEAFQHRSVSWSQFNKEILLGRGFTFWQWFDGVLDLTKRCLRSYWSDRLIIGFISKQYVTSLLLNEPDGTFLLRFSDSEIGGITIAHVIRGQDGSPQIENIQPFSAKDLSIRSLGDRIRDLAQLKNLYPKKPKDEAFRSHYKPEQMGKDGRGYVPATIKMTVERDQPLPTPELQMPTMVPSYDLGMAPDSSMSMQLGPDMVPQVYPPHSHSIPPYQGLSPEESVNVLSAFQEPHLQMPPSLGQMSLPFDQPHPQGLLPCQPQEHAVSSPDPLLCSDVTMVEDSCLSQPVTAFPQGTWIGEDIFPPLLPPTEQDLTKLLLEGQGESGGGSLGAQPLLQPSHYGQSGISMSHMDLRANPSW
Assay type: cell-based
Description: This was a HiBit based assay. A HeLa cell line stably transfected with a small protein, LgBit (Large Bit) was obtained from Promega. These cells express endogenous STAT6. A small 11 amino acid gene sequence (HiBiT) was inserted in the STAT6 gene using CRISPR technology. Once STAT6 protein is expressed in the cells, the HiBiT sequence will bind the LgBit in the cells resulting in a functional NanoBiT protein, giving a luminescent tag to STAT6. Single cell clones were prepared and the clone 4.14 was selected for the assay based on that clone showing high luminescence, high STAT6 phosphorylation upon stimulation with IL-4, and inhibition of luminescence when cells were treated with STAT6 siRNA. HeLa LgBiT clone 4.14 cells were suspended in DMEM with 10% FCS, 1% Pen/Strep, Na-pyrovate and Hygromycin B, at a concentration of 1.25*105 cells pr mL. 5000 cells were added pr well of a 384 well plate and 20 nL of compound was added by Echo® liquid handler. NN6394A (terfenadine, a toxic compound) was added to control wells at 50 μM concentration to establish the assay window. In these wells the cells are dead which equals 100% degradation of STAT6. After 4-24 h of incubation at 37° C. under 5% CO2/95% air, 5 μL substrate (Nano-GLO®) was added to the wells and the plates were centrifuged and incubated for 0.5 h. The luminescence in the wells as a measure of non-degraded STAT6 was measured in a plate reader (BMG Pherastar FSX). The measured DC50 (in nM) was determined.

SMILES	Emax [%]
CNc1ccn(-c2ccnc3c2cc(CN2CCC(c4c(C)cc(C(=O)N5CCN(C(=O)CN6CCN(c7ccc(NC8CCC(=O)NC8=O)cc7F)CC6)CC5)cc4F)CC2)n3C)c(=O)c1 (stereo not drawn) [Example 2g132, 3-((3-fluoro-4-(4-(2-(4-(3-fluoro-5-methyl-4-(1-((1-methyl-4-(4-(methylamino)-2-oxopyridin-1(2H)-yl)-1H-pyrrolo[2,3-b]pyridin-2-yl)-methyl)piperidin-4-yl)benzo-yl)piperazin-1-yl)-2-oxo-ethyl)piperazin-1-yl)phenyl)-amino)piperidine-2,6-dione]	40 to 50
Cc1cc(C(=O)N(C)c2ccc(C3CCN(c4ccc(NC5CCC(=O)NC5=O)cc4F)CC3)cc2)cc(F)c1C1=CCN([C@H](C)c2cc3c(-n4ccc5[nH]ncc5c4=O)ccnc3n2C)CC1 (stereo partly drawn) [Example 2g133, N-(4-(1-(4-((2,6-dioxopiperi-din-3-yl)amino)-2-fluoro-phenyl)piperidin-4-yl)phen-yl)-3-fluoro-N,5-dimethyl-4-(1-((R)-1-(1-methyl-4-(4-oxo-1,4-dihydro-5H-pyrazolo[4,3-c]pyridin-5-yl)-1H-pyrrolo [2,3-b]pyridin-2-yl)ethyl)-1,2,3,6-tetrahydropyridin-4-yl)benzamide]	60 to 70
Cc1cc(C(=O)N(C)c2ccc(C3CCN(c4ccc(NC5CCC(=O)NC5=O)cc4F)CC3)cc2)cc(F)c1C1=CCN([C@H](C)c2cc3c(-n4ccc5[nH]ccc5c4=O)ccnc3n2C)CC1 (stereo partly drawn) [Example 2g134, N-(4-(1-(4-((2,6-dioxopiper-idin-3-yl)amino)-2-fluoro-phenyl)piperidin-4-yl)phen-yl)-3-fluoro-N,5-dimethyl-4-(1-((R)-1-(1-methyl-4-(4-oxo-1,4-dihydro-5H-pyrrolo[3,2-c]pyridin-5-yl)-1H-pyrrolo [2,3-b]pyridin-2-yl)ethyl)-1,2,3,6-tetrahydropyridin-4-yl)benzamide]	50 to 60
